Where a name gives a salt, the structure may show the parent alone.
How the values were obtained:
[1] = target: α7^L131G, Q139L, Y217F-GlyR LGIC (Homo sapiens, UniProt P36544, L131G/Q139L/Y217F); assay: Agonist potency at the modified chimeric LGIC; format: cell-based
rat IoN-CCI model = assay: Rat IoN-CCI model of trigeminal neuralgia, von Frey filament escape threshold (ET); format: in vivo
Protocol: Infraorbital nerve (IoN) chronic constriction injury (IoN-CCI) is an art-recognized animal model of trigeminal neuralgia (Vos et al. J Neurosci 14 (5 Pt 1): 2708-2723, 1994).
Mechanical allodynia was measured using a von Frey filament assay to define the escape threshold [ET]) in the rat IoN-CCI model. The total study duration was 6 months with two intermittent time points (2-and 4-months). Behavioral efficacy, as assessed by ET, and transgene expression in the trigeminal ganglion were evaluated.
Twelve groups of male and female adult rats were treated. AAV5-m-α7-GlyR LGIC vectors were injected percutaneously into the left trigeminal ganglion whereas the right untreated trigeminal ganglion served as control.
Naïve animals (no IoN-CCI, no AAV5-m-α7-GlyR LGIC or varenicline dosing) served as intact controls for behavioral and molecular analysis.
Varenicline tartrate was administered orally. A tartrate correction factor of 1.71 was applied in dose formulations.
Efficacy presented below is a combination of all 3 time points (2, 4, and 6 months) for each treatment group.

[2] = test system: m-α7-GlyR LGICs expressed in mouse cortical neurons; assay: Evoked neuronal activity in mouse cortical neurons expressing m-α7-GlyR LGICs; format: cell-based; conditions: data not shown
[3] = 28-day study: varenicline PK in blood samples; format: in vivo, rat
Protocol: A 28-day biodistribution/toxicity study was conducted.

[4] = test system: m-α7-GlyR ion channels in cultured hippocampal neurons; assay: Sustained varenicline exposure of cultured hippocampal neurons expressing m-α7-GlyR; format: cell-based; conditions: varenicline 15 nM for 18 days; data not shown
CNS function = conditions: rat, in vivo
[5] = Varenicline concentrations in blood, PFC and CSF after single oral administration; format: in vivo, rat; conditions: male rats
m-α7-GlyR LGIC = target: T1, m-α7-GlyR LGIC (Homo sapiens, UniProt P36544, L131G/Q139L/Y217F); assay: Constitutive activity of m-α7-GlyR LGIC without varenicline; format: in vivo, rodents; conditions: absence of varenicline
T1 construct: expressed in transfected cells; host or cells: rodent neurons expressing the transgene (mouse cortical neurons, cultured hippocampal neurons; rat trigeminal ganglion after AAV5 injection)

For C[N+](C)(C)CCO [choline], the EC50 [1] was greater than 50 µM.

In the case of c1cnc2cc3c(cc2n1)[C@@H]1CNC[C@H]3C1 [varenicline, 6,10-Methano-6H-pyrazino[2,3-h][3]benzazepine, 7,8,9,10-tetrahydro-5,8,14-triazatetracyclo[10.3.1.02,11.04,9]hexadeca-2,4,6,8,10-pentaene tartrate salt], the “improvement of pain sensitivity, single agent alone” value (rat IoN-CCI model; Group 6 varenicline alone, Group 7 AAV5-m-α7-GlyR LGIC (6×10^8 vg) alone, tartrate salt) is reported as “neither varenicline alone nor AAV5-m-α7-GlyR LGIC alone (Groups 6 and 7, respectively) demonstrated improved pain sensitivity”, the “varenicline levels at the time of sample collection” value (rat IoN-CCI model; all animals receiving treatment) is reported as “within predictable levels” and the “effect of activation by varenicline on evoked neuronal activity” value [2] is reported as “reversible inhibition of evoked neuronal activity”. For the same molecule, the “decrease of varenicline level” value ([3]; 6 hours post-dose vs 2 hours, 1 mg/kg p.o.) was “approximately 50%”, the concentration at 2 h ([3]; rat, blood, po, 2 hours post-dose, 1 mg/kg p.o., average across groups) was roughly 480 nM and the concentration at 24 h ([3]; rat, blood, po, 24 hours post final dose, 1 mg/kg p.o. daily, average) was 4.4 nM. For the same molecule, the “sex differences in plasma varenicline levels” value ([3]; rat, in vivo) was “no sex differences in plasma varenicline levels”, the “tachyphylaxis or down regulation of expressed m-α7-GlyR LGICs” value [4] was “did not result in tachyphylaxis or down regulation” and the “treatment related changes in the neurological assessments” value (CNS function) was “no AAV5-m-α7-GlyR LGIC, varenicline or AAV5-m-α7-GlyR LGIC+varenicline related changes in the neurological assessments”. The “time of peak varenicline concentration in CSF” value [5] was 60 min, the “time of peak varenicline concentration in PFC” value [5] was 90 min and the “time of peak varenicline concentration in blood” value [5] was 60 min.

B1: m-α7-GlyR LGIC: human chimeric ion channel: modified nicotinic α7 receptor binding domain and glycine channel ion pore domain; SEQ ID NO: 1 (protein)
chain: MRCSPGGVWLALAASLLHVSLQGEFQRKLYKELVKNYNPLERPVANDSQPLTVYFSLSLLQIMDVDEKNQVLTTNIWLQMSWTDHYLQWNVSEYPGVKTVRFPDGQIWKPDILLYNSADERFDATFHTNVGVNSSGHCLYLPPGIFKSSCYIDVRWFPFDVQHCKLKFGSWSYGGWSLDLQMQEADISGYIPNGEWDLVGIPGKRSERFYECCKEPFPDVTFTVTMRRRMGYYLIQMYIPSLLIVILSWISFWINMDAAPARVGLGITTVLTMTTQSSGSRASLPKVSYVKAIDIWMAVCLLFVFSALLEYAAVNFVSRQHKELLRFRRKRRHHKEDEAGEGRFNFSAYGMGPACLQAKDGISVKGANNSNTTNPPPAPSKSPEEMRKLFIQRAKKIDKISRIGFPMAFLIFNMFYWIIYKIVRREDVHNQ
For B1, the constitutive activity (m-α7-GlyR LGIC) was “no constitutive activity”.
